# Biological target: T1, human apelin receptor (Homo sapiens, UniProt P35414)
# T1 construct: expressed in transfected cells
# T1 sequence (P35414 1-380): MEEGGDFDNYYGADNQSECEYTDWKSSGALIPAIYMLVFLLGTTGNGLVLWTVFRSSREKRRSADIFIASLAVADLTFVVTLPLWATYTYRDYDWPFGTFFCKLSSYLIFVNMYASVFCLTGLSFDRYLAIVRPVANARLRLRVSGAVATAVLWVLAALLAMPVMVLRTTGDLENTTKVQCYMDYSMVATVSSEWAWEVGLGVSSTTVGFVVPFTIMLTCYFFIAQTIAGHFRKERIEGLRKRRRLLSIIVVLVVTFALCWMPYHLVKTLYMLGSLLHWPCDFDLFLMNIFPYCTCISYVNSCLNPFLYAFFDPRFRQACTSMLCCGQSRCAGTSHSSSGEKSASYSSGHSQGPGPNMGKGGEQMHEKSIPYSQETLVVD
# Assay: Determination of agonism on the human apelin receptor by a calcium fluorescence assay (FLIPR)
# Assay type: cell-based
# Conditions: HEK293 cells stably transfected with human apelin receptor and Giaq protein, Fluo-4 calcium fluorescence, read-out: EC50 (APJ agonism)
# How it was run: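 Agonist EC50s come from peak intracellular calcium transients recorded by FLIPR Tetra, scaled to the 1 μM apelin-13 maximum per plate. Test system: HEK293 stably transfected with human apelin receptor plus Giaq, Fluo-4-loaded (4 μM, 1 h, 37 °C, pH 7.4 buffer with probenecid); ≥7 concentrations, triplicates.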
row,Structure (SMILES),EC50 [µM]
1,"CCC(CC)n1c(CC2CCCC2)nc2cc(C(=O)N[C@H](CC(=O)O)CC(C)C)ccc21 [Example 158, (S)-3-{[2-Cyclopentylmethyl-1-(1-ethyl-propyl)-1H-benzoimidazole-5-carbonyl]-amino}-5-methyl-hexanoic acid]",0.515
2,"CCC(CC)n1c(Cc2cccs2)nc2cc(C(=O)NC(C(N)=O)c3ccccc3)ccc21 (centres unmarked) [Example 170, 1-(1-Ethyl-propyl)-2-thiophen-2-ylmethyl-1H-benzoimidazole-5-carboxylic acid (carbamoyl-phenyl-methyl)-amide]",10.1
3,"CCC(CC)n1c(Cc2cccs2)nc2cc(C(=O)N[C@@H](CC(C)C)C(=O)N(C)CCc3ccccn3)ccc21 [Example 240, 1-(1-Ethyl-propyl)-2-thiophen-2-ylmethyl-1H-benzoimidazole-5-carboxylic acid {(S)-3-methyl-1-[methyl-(2-pyridin-2-yl-ethyl)-carbamoyl]-butyl}-amide]",0.614
4,"CCC(CC)n1c(Cc2cccs2)nc2cc(C(=O)N[C@H](CO)CC(C)C)ccc21 [Example 209, 1-(1-Ethyl-propyl)-2-thiophen-2-ylmethyl-1H-benzoimidazole-5-carboxylic acid ((S)-1-hydroxymethyl-3-methyl-butyl)-amide]",0.254
5,"C[C@@H]1CCCC[C@H]1n1c(Cc2cccs2)nc2cc(C(=O)N[C@@H](CC3CCC3)C(=O)O)ccc21 [Example 23, (S)-3-Cyclobutyl-2-{[1-((1R,2R)-2-methyl-cyclohexyl)-2-thiophen-2-ylmethyl-1H-benzoimidazole-5-carbonyl]-amino}-propionic acid]",0.106
6,"CCC(CC)n1c(Cc2cccs2)nc2cc(C(=O)N[C@@H](CC(C)C)C(=O)N(C)CCc3ccccc3)ccc21 [Example 264, 1-(1-Ethyl-propyl)-2-thiophen-2-ylmethyl-1H-benzoimidazole-5-carboxylic acid [(S)-3-methyl-1-(methyl-phenethyl-carbamoyl)-butyl]-amide]",3.34
7,"CCC(CC)n1c(Cc2cccs2)nc2cc(C(=O)NC(C)(CC(C)C)C(=O)O)ccc21 (single isomer, unassigned) [Example 440]",6.59
8,"CCC(CC)n1c(Cc2cccs2)nc2cc(C(=O)N[C@@H](CC(C)C)C(=O)NCCc3ccc(OC)cc3)ccc21 [Example 361, 1-(1-Ethyl-propyl)-2-thiophen-2-ylmethyl-1H-benzoimidazole-5-carboxylic acid {(S)-1-[2-(4-methoxy-phenyl)-ethylcarbamoyl]-3-methyl-butyl}-amide]",25
9,"CCC(CC)n1c(Cc2cccs2)nc2cc(C(=O)NC(CCO)c3ccsc3)ccc21 (centres unmarked) [Example 212, 1-(1-Ethyl-propyl)-2-thiophen-2-ylmethyl-1H-benzoimidazole-5-carboxylic acid (3-hydroxy-1-thiophen-3-yl-propyl)-amide]",9.29
10,"CCCCC(CC(=O)O)NC(=O)c1ccc2c(c1)nc(Cc1cccs1)n2[C@@H]1CCCC[C@H]1C (single isomer, unassigned) [Example 461]",3.43
11,"CCC(CC)n1c(Cc2cccs2)nc2cc(C(=O)N[C@H](C(=O)O)C(C)C)ccc21 [Example 122, (S)-2-{[1-(1-Ethyl-propyl)-2-thiophen-2-ylmethyl-1H-benzoimidazole-5-carbonyl]-amino}-3-methyl-butyric acid]",4.38
12,"CCCCC(CC(=O)O)NC(=O)c1ccc2c(c1)nc(Cc1cccs1)n2[C@@H]1CCCC[C@H]1C (stereo partly drawn) [Example 56, 3-{[1-((1R,2R)-2-Methyl-cyclohexyl)-2-thiophen-2-ylmethyl-1H-benzoimidazole-5-carbonyl]-amino}-heptanoic acid]",0.157
13,"CCC(CC)n1c(Cc2cccs2)nc2cc(C(=O)N[C@@H](CC(C)C)C(=O)N3CC[C@@H](N(C)C)C3)ccc21 [Example 260, 1-(1-Ethyl-propyl)-2-thiophen-2-ylmethyl-1H-benzoimidazole-5-carboxylic acid [(S)-1-((R)-3-dimethylamino-pyrrolidine-1-carbonyl)-3-methyl-butyl]-amide]",0.17
14,"CCC(CC)NC(=O)[C@H](CC(C)C)NC(=O)c1ccc2c(c1)nc(Cc1cccs1)n2C(CC)CC [Example 226, 1-(1-Ethyl-propyl)-2-thiophen-2-ylmethyl-1H-benzoimidazole-5-carboxylic acid [(S)-1-(1-ethyl-propylcarbamoyl)-3-methyl-butyl]-amide]",4.87
15,"CCC(CC)n1c(Cc2cccs2)nc2cc(C(=O)N[C@@H](CC(C)C)C(=O)NCC#N)ccc21 [Example 403, 1-(1-Ethyl-propyl)-2-thiophen-2-ylmethyl-1H-benzoimidazole-5-carboxylic acid [(S)-1-(cyanomethyl-carbamoyl)-3-methyl-butyl]-amide]",1.61
16,"CCC(CC)n1c(Cc2cccs2)nc2cc(C(=O)N[C@@H](CC(C)C)C(=O)N3CCC(N4CCC(C)CC4)CC3)ccc21 [Example 282, 1-(1-Ethyl-propyl)-2-thiophen-2-ylmethyl-1H-benzoimidazole-5-carboxylic acid [(S)-3-methyl-1-(4-methyl-[1,4′]bipiperidinyl-1′-carbonyl)-butyl]-amide]",0.43
17,"CC1CCCCC1n1c(Cc2cccs2)nc2cc(C(=O)N[C@@H](CC3CCCCC3)C(=O)O)ccc21 (single isomer, unassigned) [Example 424]",0.389
18,"CCC(C)n1c(Cc2ccsc2)nc2cc(C(=O)N[C@@H](CC(C)C)C(=O)O)ccc21 (stereo partly drawn) [Example 142, (S)-2-[(1-sec-Butyl-2-thiophen-3-ylmethyl-1H-benzoimidazole-5-carbonyl)-amino]-4-methyl-pentanoic acid]",12
19,"CCC(CC)n1c(Cc2cccs2)nc2cc(C(=O)NC(C)(CC(C)C)C(=O)O)ccc21 (centres unmarked) [Example 12, 2-{[1-(1-Ethyl-propyl)-2-thiophen-2-ylmethyl-1H-benzoimidazole-5-carbonyl]-amino}-2,4-dimethyl-pentanoic acid]",0.818
20,"CCC(CC)n1c(Cc2cccs2)nc2cc(C(=O)N[C@@H](CC(C)C)C(=O)NC(C)c3ccc(F)cc3)ccc21 (stereo partly drawn) [Example 246, 1-(1-Ethyl-propyl)-2-thiophen-2-ylmethyl-1H-benzoimidazole-5-carboxylic acid {(S)-1-[1-(4-fluoro-phenyl)-ethylcarbamoyl]-3-methyl-butyl}-amide]",6.84
21,"CCC(C)Cn1c(CC2CCCCC2)nc2cc(C(=O)N[C@@H](CC3CCCCC3)C(=O)O)ccc21 (stereo partly drawn) [Example 133, (S)-3-Cyclohexyl-2-{[2-cyclohexylmethyl-1-(2-methyl-butyl)-1H-benzoimidazole-5-carbonyl]-amino}-propionic acid]",2.35
22,"CCC(CC)n1c(Cc2ccco2)nc2cc(C(=O)NC(CC(=O)O)C(C)C)ccc21 (centres unmarked) [Example 41, 3-{[1-(1-Ethyl-propyl)-2-furan-2-ylmethyl-1H-benzoimidazole-5-carbonyl]-amino}-4-methyl-pentanoic acid]",2.43
23,"CCC(CC)n1c(Cc2cccs2)nc2cc(C(=O)N[C@@H](CC(C)C)C(=O)NC3CCN(c4ccccn4)CC3)ccc21 [Example 293, 1-(1-Ethyl-propyl)-2-thiophen-2-ylmethyl-1H-benzoimidazole-5-carboxylic acid [(S)-3-methyl-1-(3,4,5,6-tetrahydro-2H-[1,2′]bipyridinyl-4-ylcarbamoyl)-butyl]-amide]",2.64

# — patent publication US9156796B2, “Benzoimidazole-carboxylic acid amide derivatives as APJ receptor modulators” (SANOFI, priority 2013, dated 2015)
